Measurements: ChEMBL document CHEMBL5634109, “Synthesis and mechanism of action of new purine derivatives against triple negative breast cancer” (Eur J Med Chem, 2023)
The source made the active and inactive calls. The rule behind the calls is not given here.

Key:
[1] = tested on: HT-29; test: Antiproliferative activity against human HT-29 cells assessed as reduction in cell viability measured for 48 hrs by MTT assay; type: functional, cell-based; settings: HT-29, 48 h
[2] = Toxicity in nude mouse xenografted with human MDA-MB-231 cells assessed as change in body weight at 10 to 20 mg/kg, ip measured for 3 days; type: organism-based; settings: in vivo, 72 h, dose 10-20 mg/kg, time 3 day
[3] = tested on: MDA-MB-231; test: Induction of ROS generation in human MDA-MB-231 cells assessed as increase in intracellular ROS level at 40 uM incubated for 48 hrs by DCFH-DA staining based fluorescence microscopic analysis (Rvb=79.6%); type: functional
[4] = molecular target: Dual specificity tyrosine-phosphorylation-regulated kinase 1A (Homo sapiens, UniProt Q13627); test: Inhibition of DYRK1A (unknown origin)
[5] = tested on: K562; test: Antiproliferative activity against human K562 cells assessed as reduction in cell viability measured for 48 hrs by MTT assay; type: functional, cell-based; settings: K562, 48 h
[6] = tested on: MDA-MB-231; test: Induction of apoptosis in human MDA-MB-231 cells assessed as apoptotic cells at 40 uM incubated for 24 hrs by Annexin V-FITC/PI staining based analysis; type: functional
[7] = tested on: MCF7; test: Antiproliferative activity against human MCF7 cells assessed as reduction in cell viability measured for 48 hrs by MTT assay; type: functional, cell-based; settings: MCF7, 48 h
[8] = tested on: MGC-803; test: Antiproliferative activity against human MGC-803 cells assessed as reduction in cell viability measured for 48 hrs by MTT assay; type: functional, cell-based; settings: MGC-803, 48 h
[9] = tested on: PC-3; test: Antiproliferative activity against human PC-3 cells assessed as reduction in cell viability measured for 48 hrs by MTT assay; type: functional, cell-based; settings: PC-3, 48 h
[10] = Inhibition of PI3K/AKT/mTOR signaling pathway in human MDA-MB-231 cells assessed as decrease in AKT phosphorylation at 1 to 4 uM incubated for 6 hrs by Western blot analysis; type: cell-based; settings: dose 1-4 µM
[11] = tested on: HepG2; test: Antiproliferative activity against human HepG2 cells assessed as reduction in cell viability measured for 48 hrs by MTT assay; type: functional, cell-based; settings: HepG2, 48 h
[12] = tested on: MDA-MB-231; test: Inhibition of cell migration human MDA-MB-231 cells assessed as migration distance at 25 uM incubated for 24 hrs by wound healing assay (reference value: 642.72 micrometer); type: functional
[13] = Hepatotoxicity in nude mouse at 10 mg/kg, ip measured for 3 days; type: toxicity, organism-based; settings: in vivo, 72 h, time 3 day

OCCN1CCC(C2CCN(c3nc(NCc4ccc(F)c(Cl)c4)c4ncn(CC5CC5)c4n3)CC2)CC1
IC50 [1]: 4.16 µM
Activity [2]: Non-Toxic
Activity [3]: 80.7%
IC50 [4]: 3.89 µM
IC50 [5]: 0.32 µM
Activity [6]: >95%
IC50 [7]: 0.43 µM
IC50 [8]: 3.89 µM
IC50 [9]: 2.43 µM
inhibition [10]: Active
IC50 [11]: 1.68 µM
Activity [12]: 15.08 um
Activity [13]: Non-Toxic
